Patent publication EP2123328A1 (priority 2008, dated 2009)
Where two headings read alike, the source gives them in different places.

Key:
γ-secretase = molecular target: T1, γ-secretase (Homo sapiens, UniProt P49768); experiment: Inhibitory effect on γ-secretase: ELISA of human β-amyloid in the cell medium of APP751-expressing HEK293 cells; format: cell-based; conditions: for γ-Secretase effect: concentration 2 µM, compared with DAPT; for γ-Secretase effect / quantity of amyloid β: figure 3; for concentrations at which the substances have γ-secretase activity / decrease of β-amyloid quantity in the cell medium: tested at 0,02, 0,2 and 2 µM, Figure 2; for quantity of amyloid β: concentration 0,02 µM
T1 construct: endogenous in cells; host or cells: HEK293 cells stably expressing APP751
Protocol: To a solution of norgalanthamine hydrochloride (0.42 g 1.3560 mmol) in DMF under cooling Et3N (0.19 ml 1.3520 mmol) and N-(3,4-dichlorophenyl)-alanyl-valine (0.50 g 1.5009 mmol) and N-cyclohexyl-N-[β-(N-methylformolino)-ethyl-] carbodiimide (0.64 g 1.5109 mmol) was added. The reaction mixture was stirred for 24 hours at room temperature and the end of reaction was monitored in a system of n-BuOH:AcOH:H2O= 3:1:1 To the reaction mixture 5 % NaHCO3 was add, followed by precipitate formation. The precipitate was washed by suspending in 5 % NaHCO3 and H2O. […] 137-141 °C, yield 37 %, chromatographically pure in a system of CHCl3:MeOH=9:1 and n-BuOH:AcOH:H2O= 3:1:1. IR [cm^-1]: 3384, 3062, 3028, 2930, 1640, 1599, 1280, 1240, 1059, 753, 701. HPLC: Rt= 2.58 and 2.76 min for S and R isomers. 1H NMR (CDCl3, ppm ) δ: 7.10-7.30 (2H, NH), 7.0-6.20 (10H, 5H Ph + H9', H10'+ 3H PhCl), 6.0 (m, 2H, H4', H5'), 4.7-4.4 (m, 4H, CH2NCH2), 4.5 (m, 1H, H1'), 4.14 (m, 1H, H3'), 3.85 (s, 3H, O-CH3), 3.90 (m, 1H, CHCH2Ph), 3.75 (q, 1H, CHCH3), 3.20 (m, 1H, CHCH2Ph), 2.70 (d, J=15.9 Hz, 1H, H2a'), 2.02 (d, J=15.9 Hz, 1H, H2b'), 1.90 (m, CH2), 1.30 (d, , 3H, CHCH3). Elemental analysis - nitrogen determination: C34H36N3Cl2O5, M.M= 636.54 theoretical 6.60 % N, calculated 6.62 % N. Mass spectrometry: C34H36N3Cl2O5, M.M= 636.20 found [M+H]^+=636.55. […] 133-138 °C, yield 35 %, chromatographically pure in a system of CHCl3:MeOH=9:1 and n-BuOH:AcOH:H2O= 3:1:1. IR [cm^-1]: 3338, 2963, 2931, 2874, 1656, 1630, 1599, 1382, 1373, 1279, 1214, 1059. HPLC: Rt= 2.35 and 2.53 min for S and R isomers. 1H NMR (CDCl3, ppm) δ: 7.10-7.30 (2H, NH), 7.0-6.20 (5H, H9', H10', 3H PhCl), 5.90 (m, 2H, H4', H5'), 4.7-4.4 (m, 4H, CH2NCH2), 4.5 (m, 1H, H1'), 4.15 (m, 1H, H3'), 3.86 (s, 3H, O-CH3), 3.85 (m, 1H, H2), 3.75 (q, 1H, CHCH3), 3.20 (m, 1H), 2.70 (d, J=15.9 Hz, 1H, H2a'), 2.40 (m, 1H, CH(CH3)2), 2.02 (d, J=15.9 Hz, 1H, H2b'), 1.90 (m, CH2), 1.30 (d, 3H, CHCH3), 0.80 (d, 6H, 2 x CH3). Elemental analysis - nitrogen determination: C29H33N3Cl2O5, M.M= 588.41 calculated 7.14 % N, found 6.98 % N. Mass spectrometry: C29H33N3Cl2O5, M.M= 587.20 found [M+H]^+=588.45. Example 14 The study of inhibitory effect on γ-secretase of the compounds under the inventions took place on expressing APP751 HEK293 cells using the following methods: (1) cell cultivation of expressing APP751 HEK293 cells, and (2) ELISA (solid-phase sandwich enzyme-linked immunosorbent assay) of human β-amyloid protein. HEK293 cells were cultivated in Dulbecco's modified Eaglr's medium (Applichem, Germany) with added 10% fetal calf serum (Biowhittaker, USA) and 200 U/ml Penicillin and […] Streptomycin (Applichem, Germany) at 37°C and 5% CO2. ELISA kits of human β-amyloid are intended for in vitro quantitative determination of a native or recombinant β-amyloid in serum, supernatant of cell cultures or other biological samples. In short, a monoclonal antibody specific for the amino end of β-amyloid was immobilized for a 96-pit plate. β-amyloid antigen from the standards or from the samples was connected with this first antibody. Then a second antibody was placed for detection of the specific β-amyloid 1 - 42. An anti-rabbit antibody IgG-HRP completed the sandwich. The reaction was visualized by means of 3,3",5,5"-tetramethylbenzidine (TMB) substrate, following by a stop solution. Yellow colour intensity was in direct proportion to the concentration of β-amyloid in the original sample. The sensitivity of these ELISA was < 10 pg/ml β-amyloid. ELISA method was used to study the inhibitory effect on γ-secretase of the compounds obtained according to the invention on expressing APP751 HEK293 cells. The following abbreviations were used: • 1. 6-O-N-[N- (3,4-dichlorophenyl)-D,L-alanyl]-glycil-galanthamine - AG-GAL • 2. […] 6-O-N-[N- (3,4-dichlorophenyl)-D,L-alanyl]-L-leucil-glycil-galanthamine - ALG-GAL • 4. 6-O-N-[N- (3,4-dichlorophenyl)-D,L-alanyl]-L-valyl-glycil-galanthamine - AVG-GAL • 5. N-(3,4-dichlorophenyl)-D,L-alanyl-L-phenylalanine - AF • 6. […]

butyrylcholinesterase = molecular target: T2, butyrylcholinesterase (Homo sapiens, UniProt P06276); experiment: biochemical
T2 construct: purchased Sigma
T2 sequence (P06276 29-602): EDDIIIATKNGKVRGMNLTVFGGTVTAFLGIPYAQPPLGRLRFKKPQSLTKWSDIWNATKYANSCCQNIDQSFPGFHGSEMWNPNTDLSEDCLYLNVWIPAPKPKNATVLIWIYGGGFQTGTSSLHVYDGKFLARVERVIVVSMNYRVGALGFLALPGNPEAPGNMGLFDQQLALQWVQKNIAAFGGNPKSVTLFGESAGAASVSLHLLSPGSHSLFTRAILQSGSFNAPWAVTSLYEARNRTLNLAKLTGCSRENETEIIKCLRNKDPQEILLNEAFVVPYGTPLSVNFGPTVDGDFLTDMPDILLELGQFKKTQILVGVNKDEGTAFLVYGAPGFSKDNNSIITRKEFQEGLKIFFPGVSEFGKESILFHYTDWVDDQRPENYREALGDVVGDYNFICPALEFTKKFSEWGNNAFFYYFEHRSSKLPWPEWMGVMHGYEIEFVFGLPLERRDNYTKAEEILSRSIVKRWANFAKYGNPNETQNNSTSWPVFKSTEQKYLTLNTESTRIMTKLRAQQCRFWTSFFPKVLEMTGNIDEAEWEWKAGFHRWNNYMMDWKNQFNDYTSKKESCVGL
Protocol: In studying the inhibitory effect of the compounds according to the invention, a modified Elman's method was used. Butyrylcholine iodide was used as substrate. Butyrylcholinesterase is a commercial product (Sigma). Enzyme activity determination was performed in 0,1 M sodium phosphate buffer pH 8,0 at 25 °C. To 1 ml of the buffer, 90 mcl (7,5 MM) butyrylcholine iodide and 45 mcl (10 MM) 5,5'-ditiobis-2-nitrobenzoic acid (DTNB) were added. After stirring, 1 EU butyrylcholinesterase was added. The enzyme reaction was monitored according to the change of absorption at 412 nm in a period of 2 to10 min. The speed of the enzyme reaction was calculated in M/l.sec, using an absorption coefficient of 14,15 .10^3 1/M.cm (Eyer). Each test was repeated 3 times. The substances under study were dissolved in 50% ethyl alcohol. To trace the inhibiting effect, the compounds under study were added in different concentrations to 1,5 ml of phosphate buffer and 1 EU enzyme. They were incubated for 30 min at 25 °C, then butyrylcholine iodide and DTNB were added and the course of the enzyme reaction was monitored according to the description above. […] After a preliminary screening, such concentrations of the test substances were selected that have an inhibiting effect between 20 and 80%. To determine the inhibition constant (Ki), minimum 3 different concentrations of the test compounds under study were used. The inhibition curves for each selected concentration of the inhibitor were made using the method of double reciprocal values (Lineweaver, Burk), substrate concentration being within 90 - 3300 .10^-6 M/l. IC50 values were determined using the log-probit method. The calculations were made using the matlab6 program. IC50 values were made on the basis of experimental data obtained for different concentrations of the compounds manifesting inhibitory activity.

acetylcholinesterase = molecular target: T3, acetylcholinesterase (Homo sapiens, UniProt P22303); experiment: biochemical
T3 construct: purchased Sigma
T3 sequence (P22303 32-614, species assumed): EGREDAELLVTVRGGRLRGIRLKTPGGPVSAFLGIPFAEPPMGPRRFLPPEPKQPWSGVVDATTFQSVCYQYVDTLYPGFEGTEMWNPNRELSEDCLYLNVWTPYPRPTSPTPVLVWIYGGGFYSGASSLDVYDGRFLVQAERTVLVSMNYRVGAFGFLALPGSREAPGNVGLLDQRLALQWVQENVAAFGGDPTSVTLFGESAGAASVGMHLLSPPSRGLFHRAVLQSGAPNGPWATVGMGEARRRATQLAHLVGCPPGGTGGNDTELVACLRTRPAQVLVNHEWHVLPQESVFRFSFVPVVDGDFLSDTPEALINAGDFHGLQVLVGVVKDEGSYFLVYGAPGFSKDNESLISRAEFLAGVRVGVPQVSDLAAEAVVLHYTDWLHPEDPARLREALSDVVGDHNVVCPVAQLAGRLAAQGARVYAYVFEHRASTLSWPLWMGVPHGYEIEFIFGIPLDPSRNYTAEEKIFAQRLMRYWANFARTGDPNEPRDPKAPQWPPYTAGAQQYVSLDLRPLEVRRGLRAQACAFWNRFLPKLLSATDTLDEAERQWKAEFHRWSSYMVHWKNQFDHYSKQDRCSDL
Protocol: Acetylcholine iodide was used as substrate. Acetylcholinesterase is a commercial product (Sigma). […] After stirring, 1 EU acetylcholinesterase was added. […] Each test was repeated 3 times. The test substances was dissolved in 50% ethyl alcohol.

[1] = 0,1 M sodium phosphate buffer pH 8,0, 25 °C, 30 min preincubation, butyrylcholine iodide substrate, read-out: IC50
[2] = 0,1 M sodium phosphate buffer pH 8,0, 25 °C, 30 min preincubation, acetylcholine iodide substrate, read-out: IC50

CC(Nc1ccc(Cl)c(Cl)c1)C(=O)N[C@@H](Cc1ccccc1)C(=O)O (mixture of isomers) [AF, N-(3,4-dichlorophenyl)-D,L-alanyl-L-phenylalanine]
γ-Secretase effect (γ-secretase): comparable with the effect of DAPT

CC(C)C[C@H](NC(=O)C(C)Nc1ccc(Cl)c(Cl)c1)C(=O)O (mixture of isomers) [AL, N-(3,4-dichlorophenyl)-D,L-alanyl-L-leucine]
concentrations at which the substances have γ-secretase activity (γ-secretase; 6 hours incubation): higher than 0,02 µM | decrease of β-amyloid quantity in the cell medium (γ-secretase; 6 hours incubation): significant decrease

COc1ccc2c3c1O[C@H]1C[C@@H](OC(=O)CNC(=O)C(C)Nc4ccc(Cl)c(Cl)c4)C=C[C@@]31CCN(C)C2 (stereo partly drawn) [Compound 1, 6-O-N-[N-(3,4-dichlorophenyl)-D,L-alanyl]-glycil-galanthamine]
IC50 (butyrylcholinesterase): 23.7 µM | IC50 (acetylcholinesterase): 3.98 µM | quantity of amyloid β (γ-secretase): decreased significantly | γ-Secretase effect (γ-secretase): no inhibitory effect

COc1ccc2c3c1OC1CC(OC(=O)CNC(=O)C(Cc4ccccc4)NC(=O)C(C)Nc4ccc(Cl)c(Cl)c4)C=CC31CCN(C)C2 [Compound 2, 6-O-N-[N-(3,4-dichlorophenyl)-D,L-alanyl]-L-phenylalanyl-glycil galanthamine]
IC50 (butyrylcholinesterase; [1]): 10 µM | IC50 (acetylcholinesterase; [2]): 3.76 µM

COc1ccc2c3c1OC1CC(OC(=O)CNC(=O)C(CC(C)C)NC(=O)C(C)Nc4ccc(Cl)c(Cl)c4)C=CC31CCN(C)C2 [Compound 3, 6-O-N-[N-(3,4-dichlorophenyl)-D,L-alanyl]-L-leucil-glycil-galanthamine]
IC50 (butyrylcholinesterase; [1]): 0.612 µM | IC50 (acetylcholinesterase; [2]): 3.35 µM | quantity of amyloid β (γ-secretase): decreased significantly | γ-Secretase effect (γ-secretase): comparable with the effect of DAPT

COc1ccc2c3c1OC1CC(OC(=O)CNC(=O)C(NC(=O)C(C)Nc4ccc(Cl)c(Cl)c4)C(C)C)C=CC31CCN(C)C2 [Compound 4, 6-O-N-[N-(3,4-dichlorophenyl)-D,L-alanyl]-L-valyl-glycil-galanthamine]
IC50 (butyrylcholinesterase; [1]): 0.335 µM | IC50 (acetylcholinesterase; [2]): 8.33 µM | concentrations at which the substances have γ-secretase activity (γ-secretase; 6 hours incubation): higher than 0,02 µM | decrease of β-amyloid quantity in the cell medium (γ-secretase; 6 hours incubation): significant decrease

COc1ccc2c3c1O[C@H]1C[C@@H](O)C=C[C@@]31CCN(C(=O)[C@H](Cc1ccccc1)NC(=O)C(C)Nc1ccc(Cl)c(Cl)c1)C2 (stereo partly drawn) [Compound 5, 11-N-demethyl-11-N-N-[N-(3,4-dichlorophenyl)-D,L-alanyl]-L-phenylalanyl-galanthamine]
IC50 (butyrylcholinesterase): 0.447 µM | IC50 (acetylcholinesterase): 12.5 µM

COc1ccc2c3c1OC1CC(O)C=CC31CCN(C(=O)C(NC(=O)C(C)Nc1ccc(Cl)c(Cl)c1)C(C)C)C2 [Compound 6, 11-N-demethyl-11-N-N-[N-(3,4-dichlorophenyl)-D,L-alanyl]-L-valyl-galanthamine]
IC50 (butyrylcholinesterase; [1]): 0.603 µM | IC50 (acetylcholinesterase; [2]): 31.2 µM

C[C@H](NC(=O)Cc1cc(F)cc(F)c1)C(=O)N[C@H](C(=O)OC(C)(C)C)c1ccccc1 [DAPT, N-[N-(3,5-difluorophenylacetyl)-L-alanyl]-S-phenylglycin tertiary butyl ester, reference compound]
concentrations at which the quantity of β amyloid is decreased by inhibiting γ-secretase activity (γ-secretase; 6 hours incubation, serum-free medium, figure 1): higher than 160 nM
